# According to ChEMBL document CHEMBL4689842, “EUbOPEN Chemogenomics Library wave 1” (2021):
# Tests used:
# Format in all cases: toxicity, cell-based
# HEK-293T = test: Incucyte cell viability with HEK293T; conditions: human, 10 µM, compound concentration 10 uM
# Fibroblast = test: Incucyte cell viability with human fibroblast; conditions: 10 µM, compound concentration 10 uM
# U2OS = test: Incucyte cell viability with U2OS; conditions: human, 10 µM, compound concentration 10 uM
# [1] = 0 h, replicate number 1, timepoint 0 hours
# [2] = 6 h, replicate number 1, timepoint 6 hours
# [3] = 6 h, replicate number 2, timepoint 6 hours
# [4] = 12 h, replicate number 1, timepoint 12 hours
# [5] = 18 h, replicate number 1, timepoint 18 hours
# [6] = 24 h, replicate number 1, timepoint 24 hours
# [7] = 0 h, replicate number 2, timepoint 0 hours
# [8] = 18 h, replicate number 2, timepoint 18 hours
# [9] = 24 h, replicate number 2, timepoint 24 hours
# [10] = 12 h, replicate number 2, timepoint 12 hours
# Also: filed as whole numbers so only -1 and 0 and 1 occur.
SMILES,Growth Rate (HEK-293T; [1]),Growth Rate (HEK-293T; [2]),Growth Rate (HEK-293T; [3]),Growth Rate (HEK-293T; [4]),Growth Rate (HEK-293T; [5]),Growth Rate (HEK-293T; [6]),Growth Rate (Fibroblast; [1]),Growth Rate (Fibroblast; [2]),Growth Rate (Fibroblast; [4]),Growth Rate (Fibroblast; [5]),Growth Rate (Fibroblast; [8]),Growth Rate (Fibroblast; [6]),Growth Rate (Fibroblast; [9]),Growth Rate (U2OS; [1]),Growth Rate (U2OS; [3]),Growth Rate (U2OS; [4]),Growth Rate (U2OS; [5]),Growth Rate (U2OS; [6]),Growth Rate (U2OS; [2]),Growth Rate (HEK-293T; [7]),other results
CO[C@@H]1COCC[C@@H]1N[C@@H]1CC[C@@](C(=O)N2CCc3ncc(C(F)(F)F)cc3C2)(C(C)C)C1 [MK-0812],0,1,0,1,1,1,0,1,1,1,0,1,0,0,0,1,1,1,–,–,Growth Rate (Fibroblast; [7]): 1; Growth Rate (Fibroblast; [3]): 0
CC1(C)CNc2cc(NC(=O)c3cccnc3NCc3ccncc3)ccc21.O=P(O)(O)O.O=P(O)(O)O [MOTESANIB DIPHOSPHATE],0,–,–,–,–,–,0,–,1,1,0,1,0,0,0,1,1,1,1,–,Growth Rate (Fibroblast; [3]): 0; Growth Rate (Fibroblast; [10]): 0; Growth Rate (U2OS; [7]): 1; Growth Rate (U2OS; [9]): 0
N#CC1(c2ccccn2)CCN(Cc2cc(C(=O)N3CCCC3)c(=O)n3ccccc23)CC1 [MSD-M1PAM-NC],1,1,0,0,0,0,0,–,1,1,0,0,–,–,–,0,0,0,–,0,Growth Rate (Fibroblast; [3]): 1; Growth Rate (U2OS; [7]): 0; Growth Rate (U2OS; [9]): 1
CCCc1c(-c2ccc(O)cc2)nn(-c2ccc(O)cc2)c1-c1ccc(O)cc1 [PROPYLPYRAZOLETRIOL],0,1,–,1,1,0,0,0,0,0,1,0,1,1,1,1,0,1,–,–,Growth Rate (HEK-293T; [9]): 1; Growth Rate (Fibroblast; [10]): 1; Growth Rate (U2OS; [7]): 0; Growth Rate (U2OS; [8]): 1
COc1cccc(OC)c1-c1cc(C(=O)NC2(C(=O)O)C3CC4CC(C3)CC2C4)nn1-c1ccnc2cc(Cl)ccc12 (stereo not drawn) [REMINERTANT],0,0,1,0,0,0,0,–,1,1,0,1,0,1,1,1,0,0,–,–,Growth Rate (HEK-293T; [10]): 1; Growth Rate (Fibroblast; [3]): 1; Growth Rate (Fibroblast; [10]): 0; Growth Rate (U2OS; [8]): 1; Growth Rate (U2OS; [9]): 1
CO[C@H]1/C=C/O[C@@]2(C)Oc3c(C)c(O)c4c(O)c(c(/C=N/N5CCN(C)CC5)c(O)c4c3C2=O)NC(=O)/C(C)=C\C=C\[C@H](C)[C@H](O)[C@@H](C)[C@@H](O)[C@@H](C)[C@H](OC(C)=O)[C@@H]1C [RIFAMPIN],0,1,–,1,1,1,0,0,0,0,–,0,–,0,1,1,1,0,–,–,Growth Rate (U2OS; [9]): 1
Cc1nc2sccn2c(=O)c1CCN1CCC(=C(c2ccc(F)cc2)c2ccc(F)cc2)CC1 [RITANSERIN],0,1,0,1,0,0,0,0,0,0,–,0,–,1,–,1,1,1,–,–,Growth Rate (HEK-293T; [10]): 0; Growth Rate (U2OS; [7]): 0
C[C@@H]1CCc2ncc(F)cc2[C@H]2CCCN2c2ccn3ncc(c3n2)C(=O)N1 [SELITRECTINIB],0,0,–,0,0,0,–,1,1,1,0,1,0,1,–,1,0,1,0,1,Growth Rate (HEK-293T; [8]): 1; Growth Rate (Fibroblast; [7]): 0; Growth Rate (Fibroblast; [3]): 0; Growth Rate (Fibroblast; [10]): 0; Growth Rate (U2OS; [10]): 0; Growth Rate (U2OS; [9]): 0
COc1cccc(CNC(=O)c2nc3scc(CN(C)Cc4ccccc4)c3c(=O)[nH]2)c1 [T-26f],0,–,–,–,–,–,0,0,0,0,1,0,1,0,–,1,1,1,1,1,Growth Rate (Fibroblast; [10]): 1; Growth Rate (U2OS; [8]): 0
CC(C)CC(=O)N1CCc2nc(-c3ccc(Br)cc3)nc(N(C)Cc3ccccc3)c2C1 [THPP-1-NC],0,–,0,–,–,1,–,1,0,1,0,1,0,0,0,0,0,0,1,1,Growth Rate (HEK-293T; [10]): 0; Growth Rate (HEK-293T; [8]): 1; Growth Rate (HEK-293T; [9]): 0; Growth Rate (Fibroblast; [7]): 0; Growth Rate (Fibroblast; [3]): 0; Growth Rate (U2OS; [8]): 1
Cc1cnc(-c2cc(Cl)ccc2F)cc1-n1c(=O)n(CC(N)=O)c2cnccc21 [TP-008],0,–,1,–,–,–,–,1,0,0,1,1,0,–,–,0,0,1,1,1,Growth Rate (HEK-293T; [10]): 1; Growth Rate (HEK-293T; [9]): 1; Growth Rate (Fibroblast; [7]): 0; Growth Rate (Fibroblast; [10]): 1; Growth Rate (U2OS; [7]): 0; Growth Rate (U2OS; [10]): 1; Growth Rate (U2OS; [8]): 1
N#Cc1ccc(Nc2ccc3[nH]c(=O)[nH]c3c2)c(Cl)c1 [TP-021n],0,–,–,–,–,–,–,0,0,0,1,0,–,1,–,0,0,0,0,1,Growth Rate (HEK-293T; [9]): 1; Growth Rate (Fibroblast; [7]): 1; Growth Rate (U2OS; [7]): 0; Growth Rate (U2OS; [8]): 1
CN1C(=O)[C@@H](N2CCc3c(nn(Cc4ccccc4)c3Br)C2=O)COc2ccccc21 [TP-030-2],0,–,0,–,1,1,–,0,0,0,–,0,–,0,1,0,0,0,0,1,Growth Rate (HEK-293T; [10]): 0; Growth Rate (HEK-293T; [9]): 0; Growth Rate (U2OS; [10]): 1; Growth Rate (U2OS; [8]): 1; Growth Rate (U2OS; [9]): 1
